Measurements published in ChEMBL document CHEMBL3045816, “Synthesis and antimicrobial screening of 5-(benzylidene)-3-phenylthiazolidin-4-one derivatives incorporating thiazole ring” (Med Chem Res, 2013).
In brackets after ≈: the same amount, converted by molar mass.

Legend:
[1] = system: Candida albicans; assay: Antimicrobial activity against Candida albicans MTCC 227 assessed as growth inhibition after 48 hr; assay type: functional; conditions: MTCC 227, 48 h
[2] = system: Staphylococcus aureus; assay: Antimicrobial activity against Staphylococcus aureus MTCC 96 assessed as growth inhibition after 24 hr by turbidimetric method; assay type: functional; conditions: MTCC 96, 24 h
[3] = system: Pseudomonas aeruginosa; assay: Antimicrobial activity against Pseudomonas aeruginosa MTCC 1688 assessed as growth inhibition after 24 hr by turbidimetric method; assay type: functional; conditions: MTCC 1688, 24 h
[4] = system: Escherichia coli; assay: Antimicrobial activity against Escherichia coli MTCC 443 assessed as growth inhibition after 24 hr by turbidimetric method; assay type: functional; conditions: MTCC 443, 24 h
[5] = system: Aspergillus clavatus; assay: Antimicrobial activity against Aspergillus clavatus MTCC 1323 assessed as growth inhibition after 48 hr; assay type: functional; conditions: MTCC 1323, 48 h
[6] = system: Streptococcus pyogenes; assay: Antimicrobial activity against Streptococcus pyogenes MTCC 442 assessed as growth inhibition after 24 hr by turbidimetric method; assay type: functional; conditions: MTCC 442, 24 h
[7] = system: Aspergillus niger; assay: Antimicrobial activity against Aspergillus niger MTCC 282 assessed as growth inhibition after 48 hr; assay type: functional; conditions: MTCC 282, 48 h
[8] = system: HepG2; assay: Cytotoxicity against Homo sapiens (human) HepG2 cells by SRB assay; assay type: cell-based
[9] = system: HL-60; assay: Cytotoxicity against Homo sapiens (human) HL60 cells by SRB assay; assay type: cell-based
[10] = system: A549; assay: Cytotoxicity against Homo sapiens (human) A549 cells by SRB assay; assay type: cell-based

Compound | MIC [1] [µg/mL] | MIC [2] [µg/mL] | MIC [3] [µg/mL] | MIC [4] [µg/mL] | MIC [5] [µg/mL] | MIC [6] [µg/mL] | MIC [7] [µg/mL] | Activity [8] | Activity [9] | Activity [10]
COc1ccc(C(=O)Nc2nc(C)c(C(=O)N/N=C3\S/C(=C\c4ccc([N+](=O)[O-])cc4)C(=O)N3c3ccccc3)s2)cc1 | 500 (≈ 813 µM) | 500 (≈ 813 µM) | 500 (≈ 813 µM) | 250 (≈ 407 µM) | 500 (≈ 813 µM) | 500 (≈ 813 µM) | 500 (≈ 813 µM) |  |  | 
COc1ccc(C(=O)Nc2nc(C)c(C(=O)N/N=C3\S/C(=C\c4ccc(F)cc4)C(=O)N3c3ccccc3)s2)cc1 | 500 (≈ 851 µM) | 500 (≈ 851 µM) | 250 (≈ 425 µM) | 500 (≈ 851 µM) | 500 (≈ 851 µM) | 250 (≈ 425 µM) | 250 (≈ 425 µM) |  |  | 
COc1ccc(C(=O)Nc2nc(C)c(C(=O)N/N=C3\S/C(=C\c4ccc(O)cc4)C(=O)N3c3ccccc3)s2)cc1 | 250 (≈ 427 µM) | 50 (≈ 85.4 µM) | 250 (≈ 427 µM) | 50 (≈ 85.4 µM) | 250 (≈ 427 µM) | 250 (≈ 427 µM) | 100 (≈ 171 µM) | Non-toxic | Non-toxic | Non-toxic
COc1ccc(C(=O)Nc2nc(C)c(C(=O)N/N=C3\S/C(=C\c4ccccc4C)C(=O)N3c3ccccc3)s2)cc1 | 100 (≈ 171 µM) | 250 (≈ 428 µM) | 25 (≈ 42.8 µM) | 25 (≈ 42.8 µM) | 100 (≈ 171 µM) | 100 (≈ 171 µM) | 100 (≈ 171 µM) | Non-toxic | Non-toxic | Non-toxic
COc1ccc(C(=O)Nc2nc(C)c(C(=O)N/N=C3\S/C(=C\c4cccc(C)c4)C(=O)N3c3ccccc3)s2)cc1 | 250 (≈ 428 µM) | 250 (≈ 428 µM) | 250 (≈ 428 µM) | 100 (≈ 171 µM) | 250 (≈ 428 µM) | 100 (≈ 171 µM) | 250 (≈ 428 µM) |  |  | 
COc1ccc(C(=O)Nc2nc(C)c(C(=O)N/N=C3\S/C(=C\c4ccc(C)cc4)C(=O)N3c3ccccc3)s2)cc1 | 100 (≈ 171 µM) | 50 (≈ 85.7 µM) | 50 (≈ 85.7 µM) | 12.5 (≈ 21.4 µM) | 25 (≈ 42.8 µM) | 50 (≈ 85.7 µM) | 25 (≈ 42.8 µM) | Non-toxic | Non-toxic | Non-toxic
COc1ccc(C(=O)Nc2nc(C)c(C(=O)N/N=C3\S/C(=C\c4ccccc4OC)C(=O)N3c3ccccc3)s2)cc1 | 100 (≈ 167 µM) | 100 (≈ 167 µM) | 100 (≈ 167 µM) | 250 (≈ 417 µM) | 100 (≈ 167 µM) | 100 (≈ 167 µM) | 100 (≈ 167 µM) | Non-toxic | Non-toxic | Non-toxic
COc1ccc(C(=O)Nc2nc(C)c(C(=O)N/N=C3\S/C(=C\c4cccc(OC)c4)C(=O)N3c3ccccc3)s2)cc1 | 500 (≈ 834 µM) | 250 (≈ 417 µM) | 250 (≈ 417 µM) | 50 (≈ 83.4 µM) | 250 (≈ 417 µM) | 250 (≈ 417 µM) | 250 (≈ 417 µM) |  |  | 
COc1ccc(/C=C2\S/C(=N\NC(=O)c3sc(NC(=O)c4ccc(OC)cc4)nc3C)N(c3ccccc3)C2=O)cc1 | 50 (≈ 83.4 µM) | 100 (≈ 167 µM) | 50 (≈ 83.4 µM) | 25 (≈ 41.7 µM) | 50 (≈ 83.4 µM) | 50 (≈ 83.4 µM) | 100 (≈ 167 µM) | Non-toxic | Non-toxic | Non-toxic
COc1ccc(C(=O)Nc2nc(C)c(C(=O)N/N=C3\S/C(=C\c4ccccc4Cl)C(=O)N3c3ccccc3)s2)cc1 | 500 (≈ 828 µM) | 250 (≈ 414 µM) | 250 (≈ 414 µM) | 250 (≈ 414 µM) | 250 (≈ 414 µM) | 500 (≈ 828 µM) | 250 (≈ 414 µM) |  |  | 
COc1ccc(C(=O)Nc2nc(C)c(C(=O)N/N=C3\S/C(=C\c4ccc(Cl)cc4)C(=O)N3c3ccccc3)s2)cc1 | 500 (≈ 828 µM) | 250 (≈ 414 µM) | 500 (≈ 828 µM) | 500 (≈ 828 µM) | 500 (≈ 828 µM) | 500 (≈ 828 µM) | 500 (≈ 828 µM) |  |  | 
COc1ccc(C(=O)Nc2nc(C)c(C(=O)N/N=C3\S/C(=C\c4ccccc4[N+](=O)[O-])C(=O)N3c3ccccc3)s2)cc1 | 1000 (≈ 1630 µM) | 500 (≈ 813 µM) | 250 (≈ 407 µM) | 500 (≈ 813 µM) | 250 (≈ 407 µM) | 250 (≈ 407 µM) | 250 (≈ 407 µM) |  |  | 
COc1ccc(C(=O)Nc2nc(C)c(C(=O)NN)s2)cc1 | 1000 (≈ 3260 µM) | > 1000 | 1000 (≈ 3260 µM) | > 1000 | 1000 (≈ 3260 µM) | 1000 (≈ 3260 µM) | > 1000 |  |  | 
COc1ccc(C(=O)Nc2nc(C)c(C(=O)NNC(=S)Nc3ccccc3)s2)cc1 | 1000 (≈ 2260 µM) | 500 (≈ 1130 µM) | 500 (≈ 1130 µM) | 500 (≈ 1130 µM) | > 1000 | 500 (≈ 1130 µM) | 1000 (≈ 2260 µM) |  |  | 
COc1ccc(C(=O)Nc2nc(C)c(C(=O)N/N=C3\SCC(=O)N3c3ccccc3)s2)cc1 | 1000 (≈ 2080 µM) | 500 (≈ 1040 µM) | 500 (≈ 1040 µM) | 250 (≈ 519 µM) | 250 (≈ 519 µM) | 500 (≈ 1040 µM) | 1000 (≈ 2080 µM) |  |  | 
COc1ccc(C(=O)Nc2nc(C)c(C(=O)N/N=C3\S/C(=C\c4ccccc4)C(=O)N3c3ccccc3)s2)cc1 | 500 (≈ 878 µM) | 500 (≈ 878 µM) | 500 (≈ 878 µM) | 250 (≈ 439 µM) | 500 (≈ 878 µM) | 250 (≈ 439 µM) | 500 (≈ 878 µM) |  |  | 
COc1ccc(C(=O)Nc2nc(C)c(C(=O)N/N=C3\S/C(=C\c4ccccc4O)C(=O)N3c3ccccc3)s2)cc1 | 500 (≈ 854 µM) | 250 (≈ 427 µM) | 250 (≈ 427 µM) | 100 (≈ 171 µM) | 250 (≈ 427 µM) | 100 (≈ 171 µM) | 250 (≈ 427 µM) |  |  | 
COc1ccc(C(=O)Nc2nc(C)c(C(=O)N/N=C3\S/C(=C\c4cccc(O)c4)C(=O)N3c3ccccc3)s2)cc1 | 500 (≈ 854 µM) | 100 (≈ 171 µM) | 100 (≈ 171 µM) | 100 (≈ 171 µM) | 100 (≈ 171 µM) | 250 (≈ 427 µM) | 250 (≈ 427 µM) |  |  | 
O=C(O)c1cn(C2CC2)c2cc(N3CCNCC3)c(F)cc2c1=O [CIPROFLOXACIN] |  | 50 (≈ 151 µM) |  | 25 (≈ 75.4 µM) |  | 50 (≈ 151 µM) |  |  |  | 
COC1=CC(=O)C[C@@H](C)[C@]12Oc1c(Cl)c(OC)cc(OC)c1C2=O [GRISEOFULVIN] | 500 (≈ 1420 µM) |  |  |  | 100 (≈ 283 µM) |  | 100 (≈ 283 µM) |  |  | 
